The values that follow are results of earlier work, collected in patent publication US3989730A, “Bone-seeking technetium-99m complex” (priority 1973, dated 1976).

For this data set the following is noted: cited from earlier work.

For technetium-99m, under “gamma emission of 140 KeV”, the external photon yield is 90%. In addition, the half-life of radionuclide (radioactive decay) is 6 h.
